Results from the OligoGym collection.
Values joined by “and” are separate entries in the source; they are usually repeats but may differ in a detail not shown here. Identical values can stand only once. After the bases stand the sugars from the 5' end (letter, count) and the backbone: PS all phosphorothioate, else s phosphorothioate and o phosphodiester by linkage. Methylation of C is not given here. e = 2'-O-(2-methoxyethyl) (MOE); l = locked nucleic acid (LNA); k = constrained ethyl (cEt); d = 2'-deoxy (DNA)

Legend:
ANGPTL2 = conditions: ASO
KRAS = conditions: ASO

| Sequence | target mRNA inhibition (ANGPTL2; 5 µM) | target mRNA inhibition (ANGPTL2; 25 µM) | target mRNA inhibition (KRAS; A431, 2 µM) | further results |
| --- | --- | --- | --- | --- |
| TTGACAGGGATTAGGCA (sugars l1 d13 l3, PS) | 11.6% | 23.9% | – | – |
| CAGAACAATGGGGAGGA (sugars l3 d12 l2, PS) | 58.5% | 51.1% | – | – |
| ATAACGCCCACTGAGA (sugars l1 d11 l4, PS) | 24.4% | 39.7% | – | – |
| AAGTTGATAGTTTATCTCCT (sugars l2 d16 l2, PS) | 60.9% | 72% | – | – |
| TGGTTGATGATGCGGTTGTA (sugars l1 d17 l2, PS) | 48% | 53% | – | – |
| TGATGATGCGGTTGTAG (sugars l3 d12 l2, PS) | 64.2% | 70.3% | – | – |
| AGTGAGAGGAAGTCAGGG (sugars l1 d15 l2, PS) | 39.6% | 46.3% | – | – |
| CCAGTTCCTGAAGAAGTT (sugars l2 d14 l2, PS) | 16.3% | 16.7% | – | – |
| ATCTGGTTGATGATGCGG (sugars l2 d14 l2, PS) | 75.2% | 82.3% | – | – |
| GCAGTTATCACACCACA (sugars l1 d13 l3, PS) | 38.9% | 44% | – | – |
| AGTGTTTAAGAAGAAATG (sugars l4 d10 l4, PS) | 41.7% | 54.8% | – | – |
| TGACCCCTGATTATTCA (sugars l1 d13 l3, PS) | 7.55% | 4.06% | – | – |
| ATGATGCGGTTGTAGGT (sugars l2 d13 l2, PS) | 57.5% | – | – | – |
| ACAGAGACTAGGCATTT (sugars l3 d10 l4, PS) | 74.1% | 83.9% | – | – |
| CAGGCACACTAATGAGA (sugars l2 d12 l3, PS) | 9.64% | 9.52% | – | – |
| CTTAATGGGCAGTAATA (sugars l4 d9 l4, PS) | 32.6% | 42.3% | – | – |
| GCTCATTGTTGAGCAGC (sugars l1 d14 l2, PS) | -2.2% | 3.15% | – | – |
| ATAGCAGGGAGTGACC (sugars l2 d12 l2, PS) | 8.4% | 26.5% | – | – |
| GAGTTCATGTTGCGGC (sugars l1 d13 l2, PS) | 21.4% | 24.9% | – | – |
| AGCTCAGTGGTGAGATGG (sugars l1 d15 l2, PS) | 54.1% | 54.8% | – | – |
| AACCATTTTGAGATTCCCC (sugars l1 d16 l2, PS) | 28.5% | 17.6% | – | – |
| CATTTTGAGATTCCCCC (sugars l1 d14 l2, PS) | 27.1% | 14% | – | – |

| Sequence | target mRNA inhibition (ANGPTL2; 5 µM) | target mRNA inhibition (ANGPTL2; 25 µM) | target mRNA inhibition (KRAS; A431, 2 µM) | further results |
| --- | --- | --- | --- | --- |
| TTGATTTGTCAGCAGG (sugars kkkddddddddkekek, PS) | – | – | 37% and 12% | – |
| TCCATTTATGTGACTA (sugars kkddddddddddkeke, PS) | – | – | 22% | – |
| ATGGTGTAACATAGGT (sugars k3 d9 k3 e1, PS) | – | – | 47% | – |
| TAATGGTGAATATCTT (sugars k3 d10 k3, PS) | – | – | 11% | – |
| AATTACTTATGCAGAG (sugars k3 d10 k3, PS) | – | – | 44% | – |
| ATGGTTAGGGGAATTA (sugars k3 d10 k3, PS) | – | – | 33% | – |
| AGTCCAGTGATACTTT (sugars k3 d10 k3, PS) | – | – | 8% | – |
| TGTAAATATAGCCCCA (sugars k3 d10 k3, PS) | – | – | 34% | – |
| AAAAAAAATTAATGTC (sugars k3 d10 k3, PS) | – | – | 14% | – |
| GAGTCTTTATAGTAAT (sugars kdddddddddkekeke, PS) | – | – | 21% | – |
| GCATTGCTAGTTCAAA (sugars k3 d10 k3, PS) | – | – | 46% | – |
| GTAGGGCATTTCTGAT (sugars k3 d10 k3, PS) | – | – | 14% | – |
| TTGCTATAATAATCCC (sugars k3 d10 k3, PS) | – | – | 39% | – |
| GTGAATATCTTCAAAT (sugars k3 d10 k3, PS) | – | – | 0% | – |
| CTTGATTTGTCAGCAG (sugars kkddddddddddkeke, PS) | – | – | 54% | – |
| CTTGATTTGTCAGCAG (sugars kkddddddddkekekk, PS) | – | – | 33% | target mRNA inhibition (KRAS; A431, 0.037 µM): 55% |
| CCATTCAAAGTTCACA (sugars kkdddddddddkdkdk, PS) | – | – | 31% | – |
| CATTCAAAGTTCACAT (sugars kdddddddddkekeke, PS) | – | – | 24% | – |
| TTTCTGATGTGACTCA (sugars k3 d10 k3, PS) | – | – | 57% | target mRNA inhibition (KRAS; A431, 0.185 µM): 0%; target mRNA inhibition (KRAS; A431, 0.556 µM): 23%; target mRNA inhibition (KRAS; A431, 1.667 µM): 43%; target mRNA inhibition (KRAS; A431, 5 µM): 60% |
| GTCCAGTGATACTTTC (sugars kkdddddddddkekek, PS) | – | – | 43% | – |
| CAAAGTTCACATAAAG (sugars k3 d10 k3, PS) | – | – | 21% | – |
| CTTGATTTGTCAGCAG (sugars kkkdddddddddkeke, PS) | – | – | 46% | – |
